Test results taken from patent US9234178B2, “Differentiation of human pluripotent stem cells” (Janssen Biotech, Inc., priority 2008, dated 2016).

Key:
Type in all cases: cell-based, human
insulin-producing cells [1] = assay: Kinetics of CDK inhibitor-induced MAFA expression, PCR (Example 6)
Procedure: DMEM/F12+1% B27 for seven days (Stage 6), then • g. Treatment with Accutase for 5 minutes, followed by scraping to remove any remaining attached cells. The cell suspension was then passed through a 40 μm cell strainer. The cells retained on the strainer were removed by rinsing in basal media and cultured in suspension on Ultra-Low culture plates in DMEM-High Glucose (Catalogue#11995-073, Invitrogen, Ca)+1% B27+20 ng/ml of activin A (AA) 2 μm of CDK inhibitor III (Catalog#217714, Calbiochem, Ca) for 1-8 days (Stage 7).
Samples were collected for PCR analysis at days 1, 2, 3, and 4.

islet-like clusters = assay: CDK inhibitor III treatment of islet-like clusters in suspension (Stage 7): PCR and dithizone staining (Example 4); conditions: 1 μm
Procedure: The medium was changed daily.
After stage 6, the cells were treated for 5 mins at room temperature with 1× accutase (Sigma, Mo.). The accutase was removed, and DMEM/12+1% B27 was added to the cells. The attached cells were removed using a cell scarper and gently resuspended and passed through a 40 μm cell strainer. The cells retained on the strainer were removed by rinsing in basal media and cultured in suspension on Ultra-Low culture plates (Catalogue#3471, Corning, Ma). […] Cells treated with vehicle were included as controls. Samples were collected at days 7 through 10 for PCR analysis and dithizone staining. The cells cultured in suspension according to the methods outlined in this example assumed a morphology similar to pancreatic islet clusters.

insulin-producing cells [2] = assay: FACS analysis of insulin producing cells (Example 5); conditions: 1 μM for 5 days
Procedure: DMEM/F12+1% B27 for seven days (Stage 6), then • g. Treatment with Accutase for 5 minutes, followed by scraping to remove any remaining attached cells. The cell suspension was then passed through a 40 μm cell strainer. The cells retained on the strainer were removed by rinsing in basal media and cultured in suspension on Ultra-Low culture plates in DMEM-High Glucose (Catalogue#11995-073, Invitrogen, Ca)+1% B27+20 ng/ml of activin A (AA) 1 μm of CDK inhibitor III (Catalog#217714, Calbiochem, Ca) for 5 days (Stage 7).
Islet-like clusters were dispersed into single cells using TrypLE Express (Invitrogen, Carlsbad, Calif.) and washed in cold PBS. For fixation, the cells were resuspended in 200-300 μl Cytofix/Cytoperm Buffer (BD 554722, BD, Ca) and incubated for 30 min at 4° C. Cells were washed two times in 1 ml Perm/Wash Buffer Solution (BD 554723) and resuspended in 100 μl staining/blocking solution containing 2% normal goat serum in Perm/Wash buffer. For flow cytometric analysis, cells were stained with the following primary antibodies: Anti-Insulin (Rabbit mAb, Cell Signaling No. C279; 1:100 dilution); Anti-Glucagon (Mouse Mab, Sigma No. G2654, 1:100); Anti-Synaptophysin (Rabbit Polyclonal antibody, DakoCytomation No A0010, 1:50). […] Cells were washed at least once in Perm/Wash buffer and analyzed using BD FACSArray. […]

[3] = 2 μm, days 1-4 of stage 7, increased as a function of time
[4] = four days after removal of the compound
[5] = Stage 7, days 7 through 10, PCR

SMILES: Nc1nc(Nc2ccc(S(N)(=O)=O)cc2)nn1C(=S)Nc1c(F)cccc1F [PubChem ID#5330812, 5-Amino-3-((4-(aminosulfonyl)phenyl)amino)-N-(2,6-difluorophenyl)-1H-1,2,4-triazole-1-carbothioamide]
- MAFA expression (insulin-producing cells [1]; [3]): significant increase
- insulin expression (insulin-producing cells [1]; [3]): significant increase
- MAFA expression after removal of CDK inhibitor (insulin-producing cells [1]; [4]): significant drop
- insulin expression after removal of CDK inhibitor (insulin-producing cells [1]; [4]): significant drop
- expression of markers associated with the pancreatic endocrine lineage (islet-like clusters; [5]): increased the expression
- expression of the pro-insulin transcription factor MAFA (islet-like clusters; [5]): increased the expression
- dithazone (DTZ) staining of clusters (islet-like clusters; Stage 7, versus untreated clusters): more reddish staining pattern
- percentage of poly hormonal (insulin and glucagon positive) cells (insulin-producing cells [2]; Stage 7, versus vehicle): decreased
- single hormonal insulin positive cells (insulin-producing cells [2]; Stage 7, vehicle 3%): 8%
